Measurements taken from US20260234135A1, “CRYSTALLINE FORMS OR SALTS OF A DEUTERATED COMPOUND” (ALEBUND PHARMACEUTICALS (HONG KONG) LIMITED, priority 2023, published 2026).

How the values were obtained:
[1] = system: rat model of hyperlipidemia induced by high cholesterol diet; assay: Rat model of hyperlipidemia induced by high cholesterol diet (serum TG, NEFA); format: in vivo, Sprague-Dawley rats; settings: for Serum NEFA compared with the vehicle group / Serum TG compared with the vehicle group: 0.2 mg/kg and 0.6 mg/kg oral, after 7 days of treatment (Day 8)
Source text: 8.2.1 High cholesterol diet (ASHF4) was used to induce an animal model of hyperlipidemia in the SD rats.
8.2.2 The male SD rats were fed with high cholesterol diet (ASHF4, Dyet, China) for 14 days. On the day before the start of the administration (Day 0), the animals were divided into 5 groups based on body weights and serum indicators and were continually fed with the high-cholesterol diet. The treatment groups were orally dosed with either compound or vehicle while continuing the high-cholesterol diet for a total of 1 week. The animals were weighed daily before the treatment, and the compounds were given at 9:00-9:30 in the morning based on the body weight of the day.
8.2.3 Animal blood was collected, and serum was separated for the analysis of serum lipid indicators on the day before the treatment and at the end of the last day for the experiment.
8.2.4 Serum indicators of triglyceride (TG) and free fatty acid (NEFA) were determined by an automatic blood biochemical analyzer.

[2] = system: rat model of unilateral ureteral obstruction; assay: Rat model of unilateral ureteral obstruction, renal injury; settings: 0.2 mg/kg oral daily, 14 treatment days
Protocol: Housing temperature was maintained at 20-26° C. and humidity at 40%-60%. Rats were fed with a standard chow and allowed to access food and water ad libitum.
The formulation was prepared twice a week.
Vehicle or compounds were administrated by orally gavage daily. Unilateral ureteral obstruction was performed on the second day of compound treatment. Animals in model group, reference group and compound group underwent urethral ligation under isoflurane anesthesia one hour after receiving compound administration. A flank incision was cut to expose the left ureter, and a 4-0 surgical suture was used to perform two-point ligation to achieve urethral obstruction. Ureter was cut between the two ligation points. Animals in the control group were subjected to the same surgical treatment except the ligation and cut. After surgery, animals in each group continually received vehicle or compound for 12 more days, for a total of 14 treatment days.
Rats were sacrificed after 14 days' compound treatment. The obstructed kidney was weighed and collected for histology. The tissue samples were fixed with formalin, and then paraffin embedded. The embedded tissue was sectioned and stained with hematoxylin & eosin and Masson trichrome to assess kidney structure and fibrosis.
The multiple comparison was analyzed with the Kruskal-Wallis non-parameter test. […]

[3] = phase 3 clinical trials; cited from earlier work
[4] = system: db/db type 2 diabetes model; assay: Oral glucose tolerance test (OGTT) in db/db animals; format: in vivo, db/db mice; settings: for OGTT blood glucose levels at each time point compared with the vehicle group: within 120 minutes, different dosages
Protocol: At the end of the experiment, oral glucose tolerance tests were carried out on the db/db animals treated by different compounds. […] .

[5] = 7-day repeated oral gavage, body weights of ICR mice; format: in vivo; settings: for Weight Gain (g) compared with Day 0: n = 10
Source text: 50 male ICR mice aged 6-8 weeks; source: Laboratory Animal Business Department, Shanghai Institute of Planned Parenthood Research.
After 3 days of acclimatization, ICR mice were grouped according to their body weights. The day of grouping is designated as Day 0. […] The animals were weighed and recorded daily.

[6] = system: db/db type 2 diabetes model; assay: db/db type 2 diabetes model (body weight, serum TG, random blood glucose); settings: for Serum TG levels compared with the vehicle group / Average daily body weights compared with the vehicle group: Aleglitazar 0.2 mg/kg; for Serum TG levels compared with the vehicle group: Compound 2 at different dosages; for Average daily body weights compared with the vehicle group: Day 10 to Day 15, Compound 2 0.05, 0.2, 1 mg/kg; for Level of lipid, free fatty acid and blood glucose compared with vehicle group: summary, all groups
Source text: 45 Db/db mice were evenly divided into 5 groups before the initiation of treatment based on the body weights, serum triglyceride (TG) levels, and random blood glucose levels.
All animals were weighed daily before each dosing and treated daily for 14 consecutive days.
All the data was imported into an Excel file and presented as Mean±SEM. Graphpad Prism 7.0 software was used for data statistical analysis by One-way or Two-way ANOVA, with P<0.05 as the criterion of significant differences.

[7] = system: diabetic nephropathy model; assay: Diabetic nephropathy pharmacodynamic model (uninephrectomized db/db mice); format: in vivo, db/db: BLKS male mice
Source text: At the age of 6 weeks, db/db mice were anesthetized with 2.5% […] and subjected to uninephrectomy with removal of right kidney. Buprenorphine was applied after surgery.
11.1.2 Procedure. Two weeks after surgery, db/db mice were randomly assigned into 5 groups. Wild type mice were used for the control animals. […] Compounds were orally administrated once per day for 10 weeks.
At the 5th and 9th week after compound administration, mice were placed in metabolic cages for urine collection. Albumin level was measured for 24 hr albumin excretion calculation. At the 10th week after treatment, the animals were sacrificed for kidney dissection. The kidney was fixed in 10% neutral buffed formalin, then paraffin-embedded for histopathological analysis. Glomerulosclerosis was assessed by evaluating glomerular basement membrane, mesangial expansion, nodular sclerosis and glomerulosclerosis. Severity was graded as follows: 0: normal; 1: Glomerular basement membrane thickening: isolated glomerular basement membrane thickening and only mild, nonspecific changes by light microscopy; 2: Mesangial expansion mild (IIa) or severe (IIb): glomeruli with mild or severe mesangial expansion but without nodular sclerosis or global glomerulosclerosis in more than 50% of glomeruli; 3: Nodular sclerosis: at least one glomerulus with nodular increase in mesangial matrix; 4: Advanced diabetic glomerulosclerosis: more than 50% global glomerulosclerosis with other clinical or pathological evidence that sclerosis is attributable to diabetic nephropathy. Renal tubular injury was scored as follows: 0: no obvious lesions; 1: up to 25% involvement of tubular lesion; 2: lesion in 25% to 50% of renal tubular; 3: 50% to 75% of renal tubular lesion and grade 4: >75% tubular lesion.
Graphpad 8.0 software was used for statistical analysis. The difference between the values were analyzed with one-way ANOVA. The difference between histopathological score was analyzed with Kruskal-Wallis nonparameter test. All values were compared with the group 2.

[8] = Day 8, 0.2 mg/kg oral QDx7 days
[9] = Day 8, 0.6 mg/kg oral QDx7 days
[10] = 0.2 mg/kg (Aleglitazar P<0.001; Compound 2 P<0.01)
[11] = 0.2 mg/kg oral QDx7 days, Day 1, ICR mice
[12] = 0.2 mg/kg oral QDx7 days, Day 2, ICR mice
[13] = 0.2 mg/kg oral QDx7 days, Day 3, ICR mice
[14] = 0.2 mg/kg oral QDx7 days, Day 4, ICR mice
[15] = 0.2 mg/kg oral QDx7 days, Day 5, ICR mice
[16] = 0.2 mg/kg oral QDx7 days, Day 6, ICR mice
[17] = 0.2 mg/kg oral QDx7 days, Day 7, ICR mice
[18] = 1 mg/kg oral QDx7 days, Day 1, ICR mice
[19] = 1 mg/kg oral QDx7 days, Day 2, ICR mice
[20] = 1 mg/kg oral QDx7 days, Day 3, ICR mice
[21] = 1 mg/kg oral QDx7 days, Day 4, ICR mice
[22] = 1 mg/kg oral QDx7 days, Day 5, ICR mice
[23] = 1 mg/kg oral QDx7 days, Day 6, ICR mice
[24] = 1 mg/kg oral QDx7 days, Day 7, ICR mice

Compound: CO[C@@H](Cc1ccc(OCCc2nc(-c3ccccc3)oc2C)c2ccsc12)C(=O)O [Aleglitazar, aleglitazar]
- Serum NEFA compared with the vehicle group [1]: significantly reduce
- Serum TG compared with the vehicle group [1]: significantly reduce
- serum TG, significance compared with the first group (vehicle), One-way ANOVA [1, 8]: * (*p < 0.05)
- serum TG, significance compared with the first group (vehicle), One-way ANOVA [1, 9]: **** (****p < 0.0001)
- Total score of renal focal lesions compared to the model group [2]: did not achieve statistically significant improvement
- Blood sugar and blood lipid levels [3]: effectively reduce blood sugar and blood lipid levels
- Heart failure risk [3]: a certain degree of heart failure risk
- OGTT AUC0-120 min compared with the vehicle group [4, 10]: significantly lower
- OGTT blood glucose levels at each time point compared with the vehicle group [4]: significantly reduced
- Weight Gain (g) compared with Day 0 [5, 11]: 0.48 ± 0.27 g
- Weight Gain (g) compared with Day 0 [5, 12]: 1.66 ± 0.39 g
- Weight Gain (g) compared with Day 0 [5, 13]: 2.62 ± 0.42 g
- Weight Gain (g) compared with Day 0 [5, 14]: 3.50 ± 0.42 g
- Weight Gain (g) compared with Day 0 [5, 15]: 3.92 ± 0.4 g
- Weight Gain (g) compared with Day 0 [5, 16]: 4.81 ± 0.37 g
- Weight Gain (g) compared with Day 0 [5, 17]: 5.39 ± 0.56 g
- Weight gain, significance compared with vehicle, One-way ANOVA ([5]; 0.2 mg/kg, Day 4): * (* p < 0.05)
- Daily average weight gain compared with the vehicle group ([5]; 0.2 mg/kg, Day 4 and Day 5): significantly higher
- Weight gain, significance compared with vehicle, One-way ANOVA ([5]; 0.2 mg/kg, Day 5): * (* p < 0.05)
- Weight Gain (g) compared with Day 0 [5, 18]: 0.5 ± 0.2 g
- Weight Gain (g) compared with Day 0 [5, 19]: 1.64 ± 0.26 g
- Weight Gain (g) compared with Day 0 [5, 20]: 2.61 ± 0.51 g
- Weight Gain (g) compared with Day 0 [5, 21]: 3.33 ± 0.54 g
- Weight Gain (g) compared with Day 0 [5, 22]: 3.86 ± 0.49 g
- Weight Gain (g) compared with Day 0 [5, 23]: 4.98 ± 0.52 g
- Weight Gain (g) compared with Day 0 [5, 24]: 5.34 ± 0.50 g
- Daily average weight gain compared with the vehicle group ([5]; 1 mg/kg, Day 6): significantly higher
- Weight gain, significance compared with vehicle, One-way ANOVA ([5]; 1 mg/kg, Day 6): * (* p < 0.05)
- Serum TG levels compared with the vehicle group ([6]; Day 6 and Day 12): significantly lower
- Random blood glucose reduction compared with the vehicle group ([6]; Day 7, 0.2 mg/kg): reached statistical significance
- Average daily body weights compared with the vehicle group [6]: significantly higher
- Level of lipid, free fatty acid and blood glucose compared with vehicle group [6]: significantly decreased

Compound: [2H]C([2H])(Cc1nc(-c2ccccc2)oc1C)Oc1ccc(C[C@H](OC)C(=O)O)c2sccc12 [Compound 2]
- Serum NEFA compared with the vehicle group [1]: significantly reduce
- Serum TG compared with the vehicle group [1]: significantly reduce
- Serum NEFA compared with Aleglitazar ([1]; 0.2 mg/kg, T-test, P<0.05): significantly reduce
- Serum TG compared with Aleglitazar ([1]; 0.2 mg/kg, T-test, P<0.05): significantly reduce
- serum TG, significance compared with the first group (vehicle), One-way ANOVA [1, 8]: *** (***p < 0.001)
- serum TG, significance compared with the first group (vehicle), One-way ANOVA [1, 9]: *** (***p < 0.001)
- Total score of renal focal lesions compared to the model group [2]: significantly improved
- OGTT blood glucose compared with the vehicle group ([4]; 0.05 mg/kg (Group 4), all time points): trend of decrease but did not reach statistical significance
- OGTT AUC0-120 min compared with the vehicle group [4, 10]: significantly lower
- OGTT AUC0-120 min compared with the vehicle group ([4]; 1 mg/kg, P<0.0001): significantly lower
- OGTT AUC0-120 min compared with Aleglitazar ([4]; same dose level (0.2 mg/kg)): higher
- OGTT blood glucose levels at each time point compared with the vehicle group [4]: significantly reduced
- 24-hour urinary albumin ([7]; 5th and 9th weeks after compound administration, 0.1, 0.3, 1 mg/kg oral once per day): significantly decreased
- Glomerular damage and glomerular hypertrophy ([7]; 10 weeks treatment): suppressed the glomerular damage and ameliorate the glomerular hypertrophy
- Renal tubular injury ([7]; all dosage levels): improved the tubular injury at some extend
- Glomerular volume ([7]; high dose (1 mg/kg)): statistically significantly reduced
- Glomerulosclerosis histopathological score ([7]; high dose (1 mg/kg)): statistically significantly reduced
- Weight Gain (g) compared with Day 0 [5, 11]: 0.45 ± 0.28 g
- Weight Gain (g) compared with Day 0 [5, 12]: 1.42 ± 0.22 g
- Weight Gain (g) compared with Day 0 [5, 13]: 2.56 ± 0.23 g
- Weight Gain (g) compared with Day 0 [5, 14]: 2.96 ± 0.23 g
- Weight Gain (g) compared with Day 0 [5, 15]: 3.73 ± 0.34 g
- Weight Gain (g) compared with Day 0 [5, 16]: 4.66 ± 0.39 g
- Weight Gain (g) compared with Day 0 [5, 17]: 5.08 ± 0.42 g
- Daily weight gain compared with the vehicle group ([5]; 0.2 mg/kg, throughout the study): no significant difference
- Weight Gain (g) compared with Day 0 [5, 18]: 0.4 ± 0.17 g
- Weight Gain (g) compared with Day 0 [5, 19]: 1.57 ± 0.26 g
- Weight Gain (g) compared with Day 0 [5, 20]: 2.71 ± 0.19 g
- Weight Gain (g) compared with Day 0 [5, 21]: 3.61 ± 0.19 g
- Weight Gain (g) compared with Day 0 [5, 22]: 3.96 ± 0.29 g
- Weight Gain (g) compared with Day 0 [5, 23]: 4.84 ± 0.4 g
- Weight Gain (g) compared with Day 0 [5, 24]: 5.44 ± 0.36 g
- Weight gain, significance compared with vehicle, One-way ANOVA ([5]; 1 mg/kg, Day 4): ** (**p < 0.01)
- Average daily weight gain compared with the vehicle group ([5]; 1 mg/kg, Day 4 and 5): significantly higher
- Weight gain, significance compared with vehicle, One-way ANOVA ([5]; 1 mg/kg, Day 5): * (* p < 0.05)
- Serum TG, rank of effect among groups ([6]; 1 mg/kg (Group 6), Day 6 and Day 12): largest effect
- statistical difference (p) of the blood glucose level between treatment group and vehicle group ([6]; 0.2 mpk, Day 0, db/db mice): p > 0.05
- Serum TG levels compared with the vehicle group ([6]; Day 6 and Day 12): significantly lower
- Random blood glucose reduction compared with the vehicle group ([6]; Day 7, 1 mg/kg): reached statistical significance
- Average daily body weights compared with the vehicle group [6]: significantly higher
- Random blood glucose lowering compared with the vehicle group ([6]; Day 14, 0.05 mg/kg): did not reach statistical significance
- Random blood glucose lowering vs vehicle, compared with Day 7 ([6]; Day 14, 1 mg/kg): more pronounced effect of blood glucose lowering
- Effect on lowering blood glucose compared with Aleglitazar ([6]; overall): slightly weaker effect
- Level of lipid, free fatty acid and blood glucose compared with vehicle group [6]: significantly decreased
